Measured values published in patent US20240254119A1 (THIRD HARMONIC BIO, INC., priority 2022, published 2024).

Target: T1, wtKIT (Homo sapiens, UniProt P10721)
T1 construct: 1888289AM in the reaction mixtures
Test: HTRF biochemical assay, wtKIT (phosphorylation of a peptide substrate)
Details: Table 4
Outline: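 HTRF read-out of FAM-peptide (1 µM) phosphorylation after anti-phosphotyrosine antibody addition and EDTA quench. Reaction: 5.0 nM wtKIT, 400 µM ATP, 10 mM Mn2+, HEPES pH 7.5, 1% DMSO, 3 h, 25 °C; optional enzyme-compound preincubation; enzyme level set for 10-20% conversion.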

T1 sequence (P10721 26-976): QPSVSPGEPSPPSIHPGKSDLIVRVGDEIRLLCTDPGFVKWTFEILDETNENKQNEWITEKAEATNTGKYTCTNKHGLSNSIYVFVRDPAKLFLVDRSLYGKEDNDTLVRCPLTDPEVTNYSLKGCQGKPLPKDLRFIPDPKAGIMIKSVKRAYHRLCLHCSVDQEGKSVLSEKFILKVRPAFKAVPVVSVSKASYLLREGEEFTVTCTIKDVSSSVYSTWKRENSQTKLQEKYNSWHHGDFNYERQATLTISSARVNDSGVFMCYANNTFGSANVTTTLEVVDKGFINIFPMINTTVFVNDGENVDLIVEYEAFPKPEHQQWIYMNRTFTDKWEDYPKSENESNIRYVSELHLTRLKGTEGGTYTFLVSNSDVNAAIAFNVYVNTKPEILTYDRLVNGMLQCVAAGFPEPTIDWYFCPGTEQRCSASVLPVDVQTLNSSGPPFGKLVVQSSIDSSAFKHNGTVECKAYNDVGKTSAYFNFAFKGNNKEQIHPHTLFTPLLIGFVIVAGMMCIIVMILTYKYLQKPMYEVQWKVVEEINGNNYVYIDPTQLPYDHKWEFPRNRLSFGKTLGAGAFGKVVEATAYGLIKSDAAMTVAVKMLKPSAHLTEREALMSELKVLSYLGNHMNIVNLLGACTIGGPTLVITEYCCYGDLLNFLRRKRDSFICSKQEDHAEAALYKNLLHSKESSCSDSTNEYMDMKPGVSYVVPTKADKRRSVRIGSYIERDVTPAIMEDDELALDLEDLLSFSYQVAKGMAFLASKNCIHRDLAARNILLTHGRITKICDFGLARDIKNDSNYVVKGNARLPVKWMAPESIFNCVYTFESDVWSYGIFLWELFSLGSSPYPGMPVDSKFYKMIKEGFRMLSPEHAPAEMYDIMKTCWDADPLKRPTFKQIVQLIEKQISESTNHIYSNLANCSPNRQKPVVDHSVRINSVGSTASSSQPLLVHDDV

Cc1nc(-c2ccc(C)c(NC(=O)c3cnc4cc(-c5cscn5)ccn34)c2)no1 [Compound I-548, N-(2-methyl-5-(5-methyl-1,2,4-oxadiazol-3-yl)phenyl)-7-(thiazol-4-yl)imidazo[1,2-a]pyridine-3-carboxamide]
IC50: ≤ 50 nM

Cc1ccnc(-c2nc(-c3ccc(C)c(NC(=O)c4cnc5cc(C)ccn45)c3)no2)c1 [Compound I-549, 7-methyl-N-(2-methyl-5-(5-(4-methylpyridin-2-yl)-1,2,4-oxadiazol-3-yl)phenyl)imidazo[1,2-a]pyridine-3-carboxamide]
IC50: ≤ 50 nM

Cc1ccn2c(C(=O)Nc3cc(-c4noc(-c5cccnn5)n4)ccc3C)cnc2c1 [Compound I-550]
IC50: 50 to 500 nM

Cc1ccn2c(C(=O)Nc3cc(-c4noc(-c5nc(C)oc5C)n4)ccc3C)cnc2c1 [Compound I-551]
IC50: ≤ 50 nM

COc1ccn2c(C(=O)Nc3cc(-c4noc(Cc5ccccc5)n4)ccc3C)cnc2c1 [Compound I-552, N-(5-(5-benzyl-1,2,4-oxadiazol-3-yl)-2-methylphenyl)-7-methoxyimidazo[1,2-a]pyridine-3-carboxamide]
IC50: ≤ 50 nM

Cc1ccn2c(C(=O)Nc3cc(-c4noc(CC5CCCO5)n4)ccc3C)cnc2c1 (stereo not drawn) [Compound I-553, 7-methyl-N-(2-methyl-5-(5-((tetrahydrofuran-2-yl)methyl)-1,2,4-oxadiazol-3-yl)phenyl)imidazo[1,2-a]pyridine-3-carboxamide]
IC50: ≤ 50 nM

Cc1ccc(-c2noc(C[C@H](O)C(F)F)n2)cc1NC(=O)c1cnc2cc(-c3cscn3)ccn12 [Compound I-554, (S)—N-(5-(5-(3,3-difluoro-2-hydroxypropyl)-1,2,4-oxadiazol-3-yl)-2-methylphenyl)-7-(thiazol-4-yl)imidazo[1,2-a]pyridine-3-carboxamide]
IC50: ≤ 50 nM

Cc1ccc(-c2noc(C[C@H](O)C(F)F)n2)cc1NC(=O)c1cnc2cc(-c3ccn(C)n3)ccn12 [Compound I-555, (S)—N-(5-(5-(3,3-difluoro-2-hydroxypropyl)-1,2,4-oxadiazol-3-yl)-2-methylphenyl)-7-(1-methyl-1H-pyrazol-3-yl)imidazo[1,2-a]pyridine-3-carboxamide]
IC50: ≤ 50 nM

COc1ccn2c(C(=O)Nc3cc(-c4noc(-c5ccc(C)cn5)n4)ccc3C)cnc2c1 [Compound I-556, 7-methoxy-N-(2-methyl-5-(5-(5-methylpyridin-2-yl)-1,2,4-oxadiazol-3-yl)phenyl)imidazo[1,2-a]pyridine-3-carboxamide]
IC50: ≤ 50 nM

CNCC(O)Cc1nc(-c2ccc(C)c(NC(=O)c3cnc4ccccn34)c2)no1 (stereo not drawn) [Compound I-557]
IC50: 5000 to 30000 nM

Cc1nc(-c2ccc(C)c(NC(=O)c3cnn4cc(-c5cscn5)ccc34)c2)no1 [Compound I-559, N-(2-methyl-5-(5-methyl-1,2,4-oxadiazol-3-yl)phenyl)-6-(thiazol-4-yl)pyrazolo[1,5-a]pyridine-3-carboxamide]
IC50: ≤ 50 nM

Cc1ccc(-c2noc(C[C@H](O)C(F)F)n2)cc1NC(=O)c1cnc2ccc(-c3cscn3)cn12 [Compound I-560, (S)—N-(5-(5-(3,3-difluoro-2-hydroxypropyl)-1,2,4-oxadiazol-3-yl)-2-methylphenyl)-6-(thiazol-4-yl)imidazo[1,2-a]pyridine-3-carboxamide]
IC50: ≤ 50 nM

COc1ccn2c(C(=O)Nc3cc(-c4noc(CCC(C)(C)O)n4)ccc3C)cnc2c1 [Compound I-561, N-(5-(5-(3-hydroxy-3-methylbutyl)-1,2,4-oxadiazol-3-yl)-2-methylphenyl)-7-methoxyimidazo[1,2-a]pyridine-3-carboxamide]
IC50: ≤ 50 nM

Cc1ccc(-c2noc(C[C@H](O)C(F)F)n2)cc1NC(=O)c1cnc2ccc(-c3ccn(C)n3)cn12 [Compound I-562, (S)—N-(5-(5-(3,3-difluoro-2-hydroxypropyl)-1,2,4-oxadiazol-3-yl)-2-methylphenyl)-6-(1-methyl-1H-pyrazol-3-yl)imidazo[1,2-a]pyridine-3-carboxamide]
IC50: ≤ 50 nM

Cc1ccc(-c2noc(CCC(C)(C)O)n2)cc1NC(=O)c1cnn2ccccc12 [Compound I-563]
IC50: 50 to 500 nM

Cc1nc(-c2ccc(C)c(NC(=O)c3cnc4ccccn34)c2)no1 [Compound I-564]
IC50: 50 to 500 nM

CCOc1ccn2c(C(=O)Nc3cc(-c4noc(C[C@H](O)C(F)F)n4)ccc3C)cnc2c1 [Compound I-566, (S)—N-(5-(5-(3,3-difluoro-2-hydroxypropyl)-1,2,4-oxadiazol-3-yl)-2-methylphenyl)-7-ethoxyimidazo[1,2-a]pyridine-3-carboxamide]
IC50: ≤ 50 nM

Cc1ccc(-c2noc(CCC(C)(C)O)n2)cc1NC(=O)c1cnc2cc(COCC(C)(C)O)ccn12 [Compound I-567]
IC50: 50 to 500 nM

Cc1ccc(-c2noc(C[C@H](O)C(F)F)n2)cc1NC(=O)c1cnc2cc(OCCCCO)ccn12 [Compound I-568, (S)—N-(5-(5-(3,3-difluoro-2-hydroxypropyl)-1,2,4-oxadiazol-3-yl)-2-methylphenyl)-7-(4-hydroxybutoxy)imidazo[1,2-a]pyridine-3-carboxamide]
IC50: ≤ 50 nM

Cc1nc(-c2ccc(C)c(NC(=O)c3cnn4cc(C(F)F)ccc34)c2)no1 [Compound I-569]
IC50: 50 to 500 nM

Cc1ccc(-c2noc(C[C@H](O)C(F)F)n2)cc1NC(=O)c1cnc2cc(OCCO)ccn12 [Compound I-570, (S)—N-(5-(5-(3,3-difluoro-2-hydroxypropyl)-1,2,4-oxadiazol-3-yl)-2-methylphenyl)-7-(2-hydroxyethoxy)imidazo[1,2-a]pyridine-3-carboxamide]
IC50: ≤ 50 nM

Cc1ccc(-c2noc(C[C@H](O)C(F)F)n2)cc1NC(=O)c1cnc2cc(OCC(C)O)ccn12 (stereo partly drawn) [Compound I-571, N-(5-(5-((S)-3,3-difluoro-2-hydroxypropyl)-1,2,4-oxadiazol-3-yl)-2-methylphenyl)-7-(2-hydroxypropoxy)imidazo[1,2-a]pyridine-3-carboxamide]
IC50: ≤ 50 nM

Cc1ccc(-c2noc(-c3ccccn3)n2)cc1NC(=O)c1cnc2cc(COCC(C)(C)O)ccn12 [Compound I-573]
IC50: 50 to 500 nM

Cc1ccc(-c2noc(C[C@H](O)C(F)F)n2)cc1NC(=O)c1cnc2cc(O)ccn12 [Compound I-574, (S)—N-(5-(5-(3,3-difluoro-2-hydroxypropyl)-1,2,4-oxadiazol-3-yl)-2-methylphenyl)-7-hydroxyimidazo[1,2-a]pyridine-3-carboxamide]
IC50: ≤ 50 nM

Cc1ccc(-c2noc(C[C@H](O)C(F)F)n2)cc1NC(=O)c1cnc2cc(COCc3c[nH]nn3)ccn12 [Compound I-575, (S)-7-(((1H-1,2,3-triazol-4-yl)methoxy)methyl)-N-(5-(5-(3,3-difluoro-2-hydroxypropyl)-1,2,4-oxadiazol-3-yl)-2-methylphenyl)imidazo[1,2-a]pyridine-3-carboxamide]
IC50: ≤ 50 nM

Cc1ccc(-c2noc(C[C@H](O)C(F)F)n2)cc1NC(=O)c1cnc2cc(OCC(C)(C)O)ccn12 [Compound I-576]
IC50: ≤ 50 nM

Cc1ccc(-c2noc(C[C@H](O)C(F)F)n2)cc1NC(=O)c1cnc2cc(OCCCC(C)(C)O)ccn12 [Compound I-580, (S)—N-(5-(5-(3,3-difluoro-2-hydroxypropyl)-1,2,4-oxadiazol-3-yl)-2-methylphenyl)-7-((4-hydroxy-4-methylpentyl)oxy)imidazo[1,2-a]pyridine-3-carboxamide]
IC50: ≤ 50 nM

COc1ccn2c(C(=O)Nc3cc(-c4noc(CC5CCCO5)n4)ccc3C)cnc2c1 (stereo not drawn) [Compound I-582, 7-methoxy-N-(2-methyl-5-(5-((tetrahydrofuran-2-yl)methyl)-1,2,4-oxadiazol-3-yl)phenyl)imidazo[1,2-a]pyridine-3-carboxamide]
IC50: ≤ 50 nM

Cc1ccn2c(C(=O)Nc3cc(-c4noc(CC5CCCCO5)n4)ccc3C)cnc2c1 (stereo not drawn) [Compound I-583, 7-methyl-N-(2-methyl-5-(5-((tetrahydro-2H-pyran-2-yl)methyl)-1,2,4-oxadiazol-3-yl)phenyl)imidazo[1,2-a]pyridine-3-carboxamide]
IC50: ≤ 50 nM

Cc1ccc(-c2noc(C[C@H](O)C(F)F)n2)cc1NC(=O)c1cnc2cc(COCc3c[nH]cn3)ccn12 [Compound I-585, (S)-7-(((1H-imidazol-4-yl)methoxy)methyl)-N-(5-(5-(3,3-difluoro-2-hydroxypropyl)-1,2,4-oxadiazol-3-yl)-2-methylphenyl)imidazo[1,2-a]pyridine-3-carboxamide]
IC50: ≤ 50 nM

Cc1ccc(-c2noc(C[C@H](O)C(F)F)n2)cc1NC(=O)c1cnc2cc(COCc3ccn[nH]3)ccn12 [Compound I-586, (S)-7-(((1H-pyrazol-5-yl)methoxy)methyl)-N-(5-(5-(3,3-difluoro-2-hydroxypropyl)-1,2,4-oxadiazol-3-yl)-2-methylphenyl)imidazo[1,2-a]pyridine-3-carboxamide]
IC50: ≤ 50 nM

Cc1ccc(-c2noc(C[C@H](O)C(F)F)n2)cc1NC(=O)c1cnc2cc(COCc3nc[nH]n3)ccn12 [Compound I-587, N-[5-[5-[(2S)-3,3-difluoro-2-hydroxy-propyl]-1,2,4-oxadiazol-3-yl]-2-methyl-phenyl]-7-(1H-1,2,4-triazol-3-ylmethoxymethyl)imidazo[1,2-a]pyridine-3-carboxamide]
IC50: ≤ 50 nM

Cc1ccn2c(C(=O)Nc3cc(-c4noc(CC(=O)CF)n4)ccc3C)cnc2c1 [Compound I-589]
IC50: 500 to 5000 nM

Cc1ccc(-c2noc(CC(O)C3COC3)n2)cc1NC(=O)c1cnc2ccccn12 (stereo not drawn) [Compound I-591]
IC50: 50 to 500 nM

COc1ccn2c(C(=O)Nc3cc(-c4noc(CC5CCCCO5)n4)ccc3C)cnc2c1 (stereo not drawn) [Compound I-592, 7-methoxy-N-(2-methyl-5-(5-((tetrahydro-2H-pyran-2-yl)methyl)-1,2,4-oxadiazol-3-yl)phenyl)imidazo[1,2-a]pyridine-3-carboxamide]
IC50: ≤ 50 nM

CNCCOCc1ccn2c(C(=O)Nc3cc(-c4noc(C[C@H](O)C(F)F)n4)ccc3C)cnc2c1 [Compound I-593]
IC50: 50 to 500 nM
